The source made the active and inactive calls.
How the values were obtained:
[1] = biological target: Muscarinic acetylcholine receptor M2 (Homo sapiens, UniProt P08172); experiment: Discovery of novel allosteric modulators of the M1 muscarinic receptor: Agonist NMS competition at M2. [Related pubchem assays: 626 (Discovery of Novel Allosteric Modulators of the M1 Muscarinic Receptor: Agonist Primary Screen), 1488 (Discovery of novel allosteric modulators of the M1 muscarinic receptor: Agonist Confirmation Assay)]; type: functional
[2] = biological target: Muscarinic acetylcholine receptor M5 (Homo sapiens, UniProt P08912); experiment: (§1) Discovery of novel allosteric modulators of the M1 muscarinic receptor: Agonist NMS competition at M5. [Related pubchem assays: 1488 (Discovery of novel allosteric modulators of the M1 muscarinic receptor: Agonist Confirmation Assay), 626 (Discovery of Novel Allosteric Modulators of the M1 Muscarinic Receptor: Agonist Primary Screen)]; type: functional
[3] = biological target: Muscarinic acetylcholine receptor M3 (Homo sapiens, UniProt P20309); experiment: as §1, with “M3.” for “M5.”; type: functional
[4] = biological target: Muscarinic acetylcholine receptor M1 (Rattus norvegicus, UniProt P08482); experiment: Discovery of novel allosteric modulators of the M1 muscarinic receptor: Agonist NMS binding at M1. [Related pubchem assays: 626 ]
[5] = biological target: T1, Alkaline phosphatase, tissue-nonspecific isozyme (Homo sapiens, UniProt P05186)
T1 sequence (P05186 whole entry): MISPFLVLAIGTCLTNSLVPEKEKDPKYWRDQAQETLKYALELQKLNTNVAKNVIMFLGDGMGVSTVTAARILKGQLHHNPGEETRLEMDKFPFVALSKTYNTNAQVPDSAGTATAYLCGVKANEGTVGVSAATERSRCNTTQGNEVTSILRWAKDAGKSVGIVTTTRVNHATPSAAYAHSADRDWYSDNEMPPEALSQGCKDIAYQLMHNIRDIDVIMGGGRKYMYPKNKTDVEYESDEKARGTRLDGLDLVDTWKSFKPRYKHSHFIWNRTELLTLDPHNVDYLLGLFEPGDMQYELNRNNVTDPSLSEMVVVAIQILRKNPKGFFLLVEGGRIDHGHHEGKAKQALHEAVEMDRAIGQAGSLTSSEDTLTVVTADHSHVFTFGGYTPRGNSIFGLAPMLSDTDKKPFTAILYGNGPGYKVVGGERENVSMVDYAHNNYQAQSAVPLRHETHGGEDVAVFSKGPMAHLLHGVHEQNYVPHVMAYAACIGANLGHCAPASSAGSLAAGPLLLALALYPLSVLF

[6] = mRNA 3' processing disruption, beta-gal signal increase – luminescence, S. cerevisiae SKY197-pL101, dose response (AID 2525); type: functional, cell-based
[7] = Luminescence Cell-Based Dose Confirmation HTS to Identify Inhibitors of Polyadenylation.; type: functional
Troponin, cardiac muscle = Troponin, cardiac muscle (Homo sapiens, UniProt P19429+P45379+P63316); experiment: Fluorescence-based biochemical high throughput dose response assay for activators of the calcium sensitivity of cardiac Regulated Thin Filaments (RTF). [Related pubchem assays (depositor defined):AID493008, AID493018, AID504382, AID504383]; type: protein-complex assay
[8] = viability loss in HeLa cells – cytotoxicity control for MgcRacGAP inhibitor project, dose response (AID 624300); type: functional
[9] = biological target: T2, Rac GTPase-activating protein 1 (Homo sapiens, UniProt Q9H0H5); experiment: blockers of MgcRacGAP-driven Rac1 GTP hydrolysis – biochemical, ADP Hunter fluorescence, primary and confirmatory, confirmation (AID 624330); type: functional
T2 sequence (Q9H0H5 whole entry): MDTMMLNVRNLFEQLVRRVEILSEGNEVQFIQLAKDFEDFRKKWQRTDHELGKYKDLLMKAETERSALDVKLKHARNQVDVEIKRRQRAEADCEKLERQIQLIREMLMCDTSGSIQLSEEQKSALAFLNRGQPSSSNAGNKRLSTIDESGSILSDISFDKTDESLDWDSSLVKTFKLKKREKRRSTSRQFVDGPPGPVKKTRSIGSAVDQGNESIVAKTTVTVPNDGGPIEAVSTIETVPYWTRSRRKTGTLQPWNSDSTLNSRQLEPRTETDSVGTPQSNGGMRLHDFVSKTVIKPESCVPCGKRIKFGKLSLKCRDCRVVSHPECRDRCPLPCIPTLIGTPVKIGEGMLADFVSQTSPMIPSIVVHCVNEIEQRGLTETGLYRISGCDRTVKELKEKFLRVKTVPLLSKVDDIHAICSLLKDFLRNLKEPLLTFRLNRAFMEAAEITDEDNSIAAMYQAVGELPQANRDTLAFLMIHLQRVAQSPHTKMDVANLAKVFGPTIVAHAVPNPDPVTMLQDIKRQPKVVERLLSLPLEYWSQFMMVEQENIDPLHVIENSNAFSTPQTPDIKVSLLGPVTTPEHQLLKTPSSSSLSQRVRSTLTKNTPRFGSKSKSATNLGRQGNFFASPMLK

[10] = A Cell Based Secondary Assay To Explore Cytotoxicity of Compounds that Sensitize Mycobacterium Tuberculosis to Beta-Lactam Antibiotics.; type: functional
Aspartyl aminopeptidase = Aspartyl aminopeptidase (Plasmodium falciparum 3D7, UniProt Q8I2J3)
Procathepsin L = Procathepsin L (Homo sapiens, UniProt P07711)
Cytochrome P450 2D6 = Cytochrome P450 2D6 (Homo sapiens, UniProt P10635); experiment: qHTS Assay for Inhibitors and Substrates of Cytochrome P450 2D6. [Related pubchem assays: 410 ]; type: ADME; settings: read-out: Potency
[11] = biological target: Lysosomal acid glucosylceramidase (Homo sapiens, UniProt P04062); experiment: Dose response cell-based high throughput screening assay to identify enhancers of beta-glucosidase activity. [Related pubchem assays: 784 ]; type: functional
[12] = biological target: T3, Histone-lysine N-methyltransferase NSD2 (Homo sapiens, UniProt O96028); type: biochemical
T3 sequence (O96028 whole entry): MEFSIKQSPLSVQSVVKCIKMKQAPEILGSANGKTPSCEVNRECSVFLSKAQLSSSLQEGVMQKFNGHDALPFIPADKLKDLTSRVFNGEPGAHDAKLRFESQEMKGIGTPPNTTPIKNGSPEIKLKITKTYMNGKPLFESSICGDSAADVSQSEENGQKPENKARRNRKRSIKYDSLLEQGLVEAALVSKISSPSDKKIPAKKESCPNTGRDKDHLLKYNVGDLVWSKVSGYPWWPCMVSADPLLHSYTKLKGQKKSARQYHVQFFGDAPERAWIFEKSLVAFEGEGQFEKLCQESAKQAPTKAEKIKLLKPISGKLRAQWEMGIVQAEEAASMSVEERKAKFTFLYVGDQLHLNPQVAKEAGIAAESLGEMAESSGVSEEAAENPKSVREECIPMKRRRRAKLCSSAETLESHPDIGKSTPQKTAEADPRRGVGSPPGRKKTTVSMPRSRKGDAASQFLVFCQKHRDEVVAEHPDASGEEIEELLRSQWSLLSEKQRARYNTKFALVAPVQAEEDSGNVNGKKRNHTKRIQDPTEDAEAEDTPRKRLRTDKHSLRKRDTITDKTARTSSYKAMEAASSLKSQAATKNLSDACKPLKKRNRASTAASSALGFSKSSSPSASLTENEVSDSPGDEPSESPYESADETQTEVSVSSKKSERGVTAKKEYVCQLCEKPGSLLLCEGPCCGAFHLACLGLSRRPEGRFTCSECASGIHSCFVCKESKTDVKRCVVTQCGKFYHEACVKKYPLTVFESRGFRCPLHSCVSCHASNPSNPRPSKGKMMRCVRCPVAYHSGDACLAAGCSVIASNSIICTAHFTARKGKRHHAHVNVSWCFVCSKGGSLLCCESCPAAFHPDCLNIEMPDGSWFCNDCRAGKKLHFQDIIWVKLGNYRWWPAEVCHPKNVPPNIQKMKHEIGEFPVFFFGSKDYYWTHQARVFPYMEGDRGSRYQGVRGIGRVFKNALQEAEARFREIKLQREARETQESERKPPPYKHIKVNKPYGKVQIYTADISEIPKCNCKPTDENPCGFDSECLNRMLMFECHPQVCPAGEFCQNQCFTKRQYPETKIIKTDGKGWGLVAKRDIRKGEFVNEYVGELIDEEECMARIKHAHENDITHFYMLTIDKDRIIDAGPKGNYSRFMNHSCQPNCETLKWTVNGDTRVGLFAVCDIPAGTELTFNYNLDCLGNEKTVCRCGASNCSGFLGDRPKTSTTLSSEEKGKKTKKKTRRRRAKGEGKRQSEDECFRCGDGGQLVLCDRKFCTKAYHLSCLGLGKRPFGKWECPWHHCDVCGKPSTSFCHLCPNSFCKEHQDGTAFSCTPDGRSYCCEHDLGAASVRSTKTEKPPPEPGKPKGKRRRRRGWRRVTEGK

[13] = biological target: Photoreceptor-specific nuclear receptor (Homo sapiens, UniProt Q9Y5X4); type: functional;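 note: potency for compounds that break the NR2E3 corepressor complex and count as activators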
[14] = biological target: Peroxisome proliferator-activated receptor gamma/Nuclear receptor corepressor 2 (Homo sapiens, UniProt P37231+Q9Y618); type: functional
Beta-lactamase [15] = biological target: Beta-lactamase (Salmonella choleraesuis (strain SC-B67), UniProt Q5J463); experiment: Epi-absorbance-based counterscreen for selective VIM-2 inhibitors: dose response biochemical high throughput screening assay to identify inhibitors of TEM-1 serine-beta-lactamase.
Leucine aminopeptidase = biological target: T4, Leucine aminopeptidase (Plasmodium falciparum 3D7, UniProt Q8IL11); experiment: P. falciparum M17LAP inhibitors, primary screen, biochemical, fluorogenic H-Leu-NHMec substrate, 1536-well (AID 1619); type: functional
T4 sequence (Q8IL11 whole entry): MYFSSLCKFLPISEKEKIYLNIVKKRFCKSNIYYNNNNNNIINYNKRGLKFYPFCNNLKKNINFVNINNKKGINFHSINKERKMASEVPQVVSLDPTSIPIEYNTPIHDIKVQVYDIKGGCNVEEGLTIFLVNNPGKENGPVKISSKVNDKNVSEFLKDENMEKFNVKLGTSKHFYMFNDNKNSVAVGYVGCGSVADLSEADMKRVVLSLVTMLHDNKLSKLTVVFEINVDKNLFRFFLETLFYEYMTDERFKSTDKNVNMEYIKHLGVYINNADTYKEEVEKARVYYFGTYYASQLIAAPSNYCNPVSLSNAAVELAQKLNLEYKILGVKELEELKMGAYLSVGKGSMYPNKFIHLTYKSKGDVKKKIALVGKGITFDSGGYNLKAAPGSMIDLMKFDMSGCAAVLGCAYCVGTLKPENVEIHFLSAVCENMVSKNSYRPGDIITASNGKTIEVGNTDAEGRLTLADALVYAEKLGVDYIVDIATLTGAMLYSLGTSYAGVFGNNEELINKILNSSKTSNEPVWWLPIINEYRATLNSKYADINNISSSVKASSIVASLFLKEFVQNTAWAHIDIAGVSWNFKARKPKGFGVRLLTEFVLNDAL

Beta-lactamase [16] = biological target: T5, Beta-lactamase (Pseudomonas aeruginosa, UniProt Q79MP6); experiment: inhibition of IMP-1 beta-lactamase activity – biochemical, epi-absorbance, selectivity assay for VIM-2 inhibitor project, dose response (AID 1920)
Beta Lactamase [17] = biological target: T6, Beta Lactamase (Pseudomonas aeruginosa, UniProt Q932Y6); experiment: concentration-dependent VIM-2 enzyme inhibition – biochemical, epi-absorbance readout, selective inhibitors, dose response (AID 1919)
[18] = CCR5-tropic HIV-1 fusion blockers – cell-based, CCR5-tropic Env, dose response (AID 2279); type: functional
Beta-lactamase [19] = biological target: T5, Beta-lactamase; experiment: […] counterscreen for selective VIM-2 inhibitors: dose response biochemical high throughput screening assay to identify inhibitors of IMP-1 metallo-beta-lactamase.
Beta Lactamase [20] = biological target: T6, Beta Lactamase; experiment: VIM-2 CCF2 hydrolysis inhibition, assay artifact filter – biochemical, FRET readout, CCF2 substrate, artefact control for selective VIM-2 inhibitor project, dose response (AID 1926)
[21] = biological target: T7, Calpain-2 catalytic subunit (Sus scrofa, UniProt P43367); experiment: m-calpain protease blockers, concentration series – biochemical, fluorogenic peptide substrate, dose response (AID 1420); type: functional
T7 sequence (P43367 whole entry): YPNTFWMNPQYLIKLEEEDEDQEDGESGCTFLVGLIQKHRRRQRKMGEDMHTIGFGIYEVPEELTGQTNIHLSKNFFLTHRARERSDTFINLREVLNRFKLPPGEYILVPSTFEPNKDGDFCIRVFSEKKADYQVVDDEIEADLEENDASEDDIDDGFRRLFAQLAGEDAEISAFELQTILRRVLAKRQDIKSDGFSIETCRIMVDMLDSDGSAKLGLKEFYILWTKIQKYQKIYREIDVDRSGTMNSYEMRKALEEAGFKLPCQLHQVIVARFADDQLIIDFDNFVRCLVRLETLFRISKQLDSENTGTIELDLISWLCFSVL

[22] = biological target: T8, Probable nicotinate-nucleotide adenylyltransferase (Staphylococcus aureus (strain N315), UniProt P65502); type: functional, Staphylococcus aureus subsp. aureus N315;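 for IC50 Mean: confirmatory dose-response retesting of NadD inhibitor hits first found in an ultra-high-throughput screen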
[23] = biological target: T8, Probable nicotinate-nucleotide adenylyltransferase; type: functional, Staphylococcus aureus subsp. aureus N315; settings: read-out: IC50_Mean

T6 sequence (Q932Y6 whole entry, the tested form may be a part): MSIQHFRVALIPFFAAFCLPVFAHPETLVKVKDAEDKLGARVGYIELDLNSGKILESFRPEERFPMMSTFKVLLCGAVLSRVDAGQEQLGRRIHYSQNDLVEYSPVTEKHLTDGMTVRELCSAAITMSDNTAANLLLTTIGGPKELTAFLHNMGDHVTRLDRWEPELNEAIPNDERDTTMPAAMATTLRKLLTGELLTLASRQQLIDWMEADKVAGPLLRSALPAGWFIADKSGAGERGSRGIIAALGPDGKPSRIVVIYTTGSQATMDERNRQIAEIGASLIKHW
T5 sequence (Q79MP6 whole entry): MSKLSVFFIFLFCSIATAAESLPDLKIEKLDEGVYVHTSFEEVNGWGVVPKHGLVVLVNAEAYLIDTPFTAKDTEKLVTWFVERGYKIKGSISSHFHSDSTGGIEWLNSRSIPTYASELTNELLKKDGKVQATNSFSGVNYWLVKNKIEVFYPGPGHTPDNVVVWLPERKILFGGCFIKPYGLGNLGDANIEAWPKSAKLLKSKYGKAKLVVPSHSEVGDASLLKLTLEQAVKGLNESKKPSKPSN
T8 sequence (P65502 whole entry): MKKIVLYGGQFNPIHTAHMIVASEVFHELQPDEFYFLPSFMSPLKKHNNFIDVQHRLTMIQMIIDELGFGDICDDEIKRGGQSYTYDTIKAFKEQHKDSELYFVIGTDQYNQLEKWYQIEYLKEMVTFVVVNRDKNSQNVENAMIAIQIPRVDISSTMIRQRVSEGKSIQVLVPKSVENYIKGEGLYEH
Peroxisome proliferator-activated receptor gamma/Nuclear receptor corepressor 2, sequence (P37231 whole entry): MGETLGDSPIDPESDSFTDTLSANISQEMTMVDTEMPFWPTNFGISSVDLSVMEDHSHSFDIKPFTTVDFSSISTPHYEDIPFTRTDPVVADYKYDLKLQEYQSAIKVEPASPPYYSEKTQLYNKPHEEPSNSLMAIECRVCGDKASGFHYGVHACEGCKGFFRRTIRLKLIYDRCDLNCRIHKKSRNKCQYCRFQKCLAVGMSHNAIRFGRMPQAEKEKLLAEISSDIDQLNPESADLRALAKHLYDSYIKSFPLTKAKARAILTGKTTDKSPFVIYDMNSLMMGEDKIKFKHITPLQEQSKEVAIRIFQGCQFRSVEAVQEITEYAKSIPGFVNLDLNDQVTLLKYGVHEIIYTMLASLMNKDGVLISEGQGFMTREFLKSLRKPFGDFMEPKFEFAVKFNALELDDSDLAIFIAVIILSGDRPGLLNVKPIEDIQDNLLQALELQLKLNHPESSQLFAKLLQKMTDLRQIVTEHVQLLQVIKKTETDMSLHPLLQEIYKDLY
Peroxisome proliferator-activated receptor gamma/Nuclear receptor corepressor 2, sequence (Q9Y618 whole entry): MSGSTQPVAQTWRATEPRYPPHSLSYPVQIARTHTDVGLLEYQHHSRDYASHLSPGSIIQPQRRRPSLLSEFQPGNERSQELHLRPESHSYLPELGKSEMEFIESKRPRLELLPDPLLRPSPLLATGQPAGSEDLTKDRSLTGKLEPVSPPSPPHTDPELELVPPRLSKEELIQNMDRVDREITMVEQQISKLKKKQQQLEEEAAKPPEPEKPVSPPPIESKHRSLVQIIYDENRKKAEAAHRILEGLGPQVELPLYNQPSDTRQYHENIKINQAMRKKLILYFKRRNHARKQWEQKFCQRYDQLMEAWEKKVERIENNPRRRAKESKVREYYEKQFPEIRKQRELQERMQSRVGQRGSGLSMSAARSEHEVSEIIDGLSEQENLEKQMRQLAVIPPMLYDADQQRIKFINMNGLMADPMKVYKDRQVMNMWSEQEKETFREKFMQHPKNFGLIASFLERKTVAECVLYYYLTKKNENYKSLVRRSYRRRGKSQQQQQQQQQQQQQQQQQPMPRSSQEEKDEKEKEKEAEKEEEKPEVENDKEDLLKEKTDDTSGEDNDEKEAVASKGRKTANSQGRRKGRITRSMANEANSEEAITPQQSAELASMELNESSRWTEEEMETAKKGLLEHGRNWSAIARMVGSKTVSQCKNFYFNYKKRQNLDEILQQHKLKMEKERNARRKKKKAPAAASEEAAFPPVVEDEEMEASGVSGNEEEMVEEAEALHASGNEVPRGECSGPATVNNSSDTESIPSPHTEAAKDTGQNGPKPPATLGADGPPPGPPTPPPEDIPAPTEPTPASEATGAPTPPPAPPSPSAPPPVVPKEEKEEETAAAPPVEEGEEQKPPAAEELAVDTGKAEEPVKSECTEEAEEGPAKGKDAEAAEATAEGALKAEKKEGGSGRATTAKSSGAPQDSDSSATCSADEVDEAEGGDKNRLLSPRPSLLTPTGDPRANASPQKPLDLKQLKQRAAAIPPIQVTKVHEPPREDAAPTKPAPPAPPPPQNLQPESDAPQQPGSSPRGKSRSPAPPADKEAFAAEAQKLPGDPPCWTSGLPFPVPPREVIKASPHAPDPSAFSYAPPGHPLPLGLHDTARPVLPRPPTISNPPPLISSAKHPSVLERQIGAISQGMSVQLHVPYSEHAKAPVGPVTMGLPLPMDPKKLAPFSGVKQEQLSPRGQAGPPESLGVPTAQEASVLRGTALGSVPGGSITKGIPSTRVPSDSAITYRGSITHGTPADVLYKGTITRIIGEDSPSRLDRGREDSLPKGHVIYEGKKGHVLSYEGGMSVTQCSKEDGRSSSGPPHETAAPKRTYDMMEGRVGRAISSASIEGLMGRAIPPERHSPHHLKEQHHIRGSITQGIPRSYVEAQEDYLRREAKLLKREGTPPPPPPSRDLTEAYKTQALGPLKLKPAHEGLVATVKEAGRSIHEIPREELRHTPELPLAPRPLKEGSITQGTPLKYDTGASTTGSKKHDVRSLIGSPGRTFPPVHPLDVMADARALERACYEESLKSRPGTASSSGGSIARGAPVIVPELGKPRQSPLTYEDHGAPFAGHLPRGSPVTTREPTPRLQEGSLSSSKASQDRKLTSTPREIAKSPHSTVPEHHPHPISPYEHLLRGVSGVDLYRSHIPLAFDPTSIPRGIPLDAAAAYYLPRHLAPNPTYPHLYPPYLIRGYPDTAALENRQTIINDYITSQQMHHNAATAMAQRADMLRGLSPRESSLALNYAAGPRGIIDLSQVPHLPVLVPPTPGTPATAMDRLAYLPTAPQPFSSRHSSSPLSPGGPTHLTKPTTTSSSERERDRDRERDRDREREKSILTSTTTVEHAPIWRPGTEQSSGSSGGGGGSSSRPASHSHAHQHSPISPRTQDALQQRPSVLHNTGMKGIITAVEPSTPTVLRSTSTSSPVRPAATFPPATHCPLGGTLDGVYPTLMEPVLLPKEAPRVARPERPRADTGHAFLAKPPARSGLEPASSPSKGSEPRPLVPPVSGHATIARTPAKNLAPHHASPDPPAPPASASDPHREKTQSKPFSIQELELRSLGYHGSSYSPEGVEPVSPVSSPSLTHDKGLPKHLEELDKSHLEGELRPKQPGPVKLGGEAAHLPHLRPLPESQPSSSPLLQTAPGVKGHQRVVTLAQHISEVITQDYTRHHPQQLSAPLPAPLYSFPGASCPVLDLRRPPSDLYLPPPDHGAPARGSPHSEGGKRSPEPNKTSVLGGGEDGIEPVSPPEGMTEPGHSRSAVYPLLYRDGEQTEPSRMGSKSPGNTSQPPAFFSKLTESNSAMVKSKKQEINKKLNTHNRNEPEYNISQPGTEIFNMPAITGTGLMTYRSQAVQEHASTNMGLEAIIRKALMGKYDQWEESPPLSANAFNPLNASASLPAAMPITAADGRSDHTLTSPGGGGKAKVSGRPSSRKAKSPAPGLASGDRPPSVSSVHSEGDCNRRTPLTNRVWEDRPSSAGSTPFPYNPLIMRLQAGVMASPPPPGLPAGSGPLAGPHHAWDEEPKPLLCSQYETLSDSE
Muscarinic acetylcholine receptor M5, sequence (P08912 whole entry): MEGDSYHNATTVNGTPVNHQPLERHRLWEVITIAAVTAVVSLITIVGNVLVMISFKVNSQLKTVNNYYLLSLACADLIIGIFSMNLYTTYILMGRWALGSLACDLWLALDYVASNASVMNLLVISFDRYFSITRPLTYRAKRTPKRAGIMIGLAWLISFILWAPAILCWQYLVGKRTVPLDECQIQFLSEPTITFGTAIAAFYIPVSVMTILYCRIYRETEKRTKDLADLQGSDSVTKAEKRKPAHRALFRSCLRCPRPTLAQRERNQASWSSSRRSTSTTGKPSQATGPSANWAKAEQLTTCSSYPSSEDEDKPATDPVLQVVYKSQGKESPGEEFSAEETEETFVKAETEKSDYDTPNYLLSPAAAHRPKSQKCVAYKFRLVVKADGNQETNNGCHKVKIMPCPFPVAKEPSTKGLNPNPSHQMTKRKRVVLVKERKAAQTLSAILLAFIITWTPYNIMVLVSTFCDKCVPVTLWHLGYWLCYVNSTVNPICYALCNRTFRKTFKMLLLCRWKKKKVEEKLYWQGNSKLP
Photoreceptor-specific nuclear receptor, sequence (Q9Y5X4 whole entry): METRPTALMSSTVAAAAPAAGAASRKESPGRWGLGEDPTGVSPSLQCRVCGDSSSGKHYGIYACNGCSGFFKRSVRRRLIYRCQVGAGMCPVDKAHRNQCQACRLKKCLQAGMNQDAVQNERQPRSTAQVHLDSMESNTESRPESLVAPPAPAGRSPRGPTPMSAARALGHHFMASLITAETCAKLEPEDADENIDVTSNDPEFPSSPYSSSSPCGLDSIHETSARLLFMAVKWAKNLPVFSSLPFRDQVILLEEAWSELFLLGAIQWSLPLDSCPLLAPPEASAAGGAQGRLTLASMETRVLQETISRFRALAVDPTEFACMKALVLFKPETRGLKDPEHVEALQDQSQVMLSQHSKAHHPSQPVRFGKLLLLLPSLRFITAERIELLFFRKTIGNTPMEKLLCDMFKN
Beta-lactamase (Salmonella choleraesuis (strain SC-B67), UniProt Q5J463), sequence (Q5J463 whole entry): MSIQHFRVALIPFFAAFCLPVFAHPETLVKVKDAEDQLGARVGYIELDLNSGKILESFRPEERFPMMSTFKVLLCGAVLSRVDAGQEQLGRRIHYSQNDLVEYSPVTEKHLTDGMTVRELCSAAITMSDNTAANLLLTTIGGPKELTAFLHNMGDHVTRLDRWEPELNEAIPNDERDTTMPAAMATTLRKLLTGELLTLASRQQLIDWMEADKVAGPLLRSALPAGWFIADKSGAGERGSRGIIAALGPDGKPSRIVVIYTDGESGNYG

CCOC(=O)N1CCC(NCCNC(=O)c2cccs2)CC1
EC50 [1]: 48.9 µM (inconclusive)
EC50 [2]: 88.4 µM (inconclusive)
EC50 [3]: 77 µM (inconclusive)
EC50 [4]: 14.4 µM (inconclusive)

Fc1ccccc1N1CC(c2ccccc2)C(c2cccs2)=N1 (stereo not drawn)
EC50 [5]: > 100 µM (not active)

CCOc1cc(/C=C2\N=C(SC(C)C(N)=O)N(c3ccc(OC(F)F)cc3)C2=O)ccc1O (stereo not drawn)
EC50 [6]: 19.4 µM (active)
EC50 [7]: 10.7 µM (active)
EC50 (Troponin, cardiac muscle): 8.42 µM (active)
CC50 [8]: 51.2 µM (active)
IC50 [9]: 91.2 µM (active)

CCOc1ccccc1C(=O)Nc1cccc(-c2ccc3nncn3n2)c1
CC50 [10]: > 40 µM (active)

O=C(Nn1cnnc1)c1csc2ccccc12
IC50 (Aspartyl aminopeptidase): 2.17 µM (active)
IC50 (Procathepsin L): > 59.6 µM (not active)

CC12C=C(/C=C/c3ccc(Br)cc3)C(C)(C1)C(c1ccc(Br)cc1)CC2=O (stereo not drawn)
AC50 (Cytochrome P450 2D6): 7.94 µM (inconclusive)

CCN(CC)CCCNC(=O)c1cc(-c2cccc(Cl)c2)on1
EC50 [11]: > 50 µM (not active)
AC50 [12]: > 20 µM (inactive)

COc1cccc2cc(C(=O)C3=C(O)C(=O)N(CCN4CCOCC4)C3c3cccs3)oc12 (stereo not drawn)
IC50 [13]: > 39.8 µM (not active)
IC50 [14]: 13.7 µM (not active)

O=C(O)c1cccc(NC(=S)N/N=C/c2ccccc2OCc2cccc(Br)c2)c1
IC50 (Beta-lactamase [15]): > 59.6 µM (inactive)
IC50 (Leucine aminopeptidase): 15.8 µM (active)
IC50 (Beta-lactamase [16]): > 59.6 µM (inactive)
IC50 (Beta Lactamase [17]): 9.15 µM (active)
IC50 [18]: 44.4 µM (active)
IC50 (Beta-lactamase [19]): > 59.6 µM (inactive)
IC50 (Beta Lactamase [20]): 1.16 µM (active)
IC50 [21]: > 50 µM (not active)
IC50 [22]: 5.97 µM (active)
IC50 [23]: 15.8 µM (active)
